# Test results as given in PMC6934184, “Selective DNA-PKcs inhibition extends the therapeutic index of localized radiotherapy and chemotherapy” (The Journal of Clinical Investigation, 2019).
# Biological target: T1, SIK1 (Homo sapiens, UniProt P57059)
# T1 construct: purchased Thermo Fisher Scientific (Life Technologies) SelectScreen
# Assay: SelectScreen LanthaScreen
# Assay type: binding
# Details: 1 µM
# Summary of the method: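 SelectScreen broad panel; activity (Z'LYTE, Adapta) plus binding formats. ATP: Km app for CSF1R Z'LYTE; 10 for CAMK1 Adapta. Readout = % per kinase.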
# T1 sequence (P57059 whole entry): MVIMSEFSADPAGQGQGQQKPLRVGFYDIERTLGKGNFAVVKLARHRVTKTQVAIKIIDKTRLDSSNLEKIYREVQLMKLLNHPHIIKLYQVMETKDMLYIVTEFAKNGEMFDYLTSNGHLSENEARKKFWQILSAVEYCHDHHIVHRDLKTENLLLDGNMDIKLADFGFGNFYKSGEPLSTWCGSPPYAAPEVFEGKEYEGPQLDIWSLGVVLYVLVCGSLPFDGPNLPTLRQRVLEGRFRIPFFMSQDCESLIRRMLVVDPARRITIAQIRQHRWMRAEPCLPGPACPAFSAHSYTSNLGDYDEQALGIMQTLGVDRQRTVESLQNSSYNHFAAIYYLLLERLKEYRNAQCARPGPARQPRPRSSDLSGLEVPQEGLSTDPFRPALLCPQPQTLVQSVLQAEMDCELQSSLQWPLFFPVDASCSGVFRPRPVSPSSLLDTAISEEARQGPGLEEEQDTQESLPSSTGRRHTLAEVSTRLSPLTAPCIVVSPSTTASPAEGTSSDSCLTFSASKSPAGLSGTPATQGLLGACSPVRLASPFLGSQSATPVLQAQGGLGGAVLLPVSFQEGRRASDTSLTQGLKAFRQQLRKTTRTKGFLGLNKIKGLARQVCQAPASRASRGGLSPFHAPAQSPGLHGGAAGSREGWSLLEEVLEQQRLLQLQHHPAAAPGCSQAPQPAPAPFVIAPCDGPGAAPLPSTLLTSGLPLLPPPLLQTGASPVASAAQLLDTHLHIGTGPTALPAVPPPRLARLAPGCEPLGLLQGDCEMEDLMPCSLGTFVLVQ
smiles,measurement,value
CN(C(=O)CN1CCOCC1)c1ccc2sc3c(-c4cccc5c(=O)cc(N6CC7CCC(C6)O7)oc45)cccc3c2c1 [NU5455],% displacement,1.3%
